# In patent US20230382904A1, “SUBSTITUTED 4-([1,2,4]TRIAZOLO[1,5-a]PYRIDIN-6-YL)THIOPHENE-2-CARBOXAMIDE DERIVATIVES AND USE THEREOF” (The Johns Hopkins University, priority 2020, published 2023):
# Tests used:
# [1] = molecular target: LZK (Homo sapiens (Human), UniProt O43283); experiment: LZK biochemical assay (TR-FRET, MKK7 phosphorylation)
# Outline: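 Readout is the HTRF ratio (XL665/Eu) from an EDTA-containing detection mix of 0.4 nM Eu-anti-phospho-MKK7 (T275/S277) and 20 nM XL665-anti-His, incubated 16 h at 32° C. This followed a 90 min RT reaction of 10 nM LZK catalytic domain, 15 nM MKK7 and 15 μM ATP at pH 7.5.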
# [2] = molecular target: DLK (Homo sapiens (Human), UniProt Q12852); experiment: DLK biochemical assay (TR-FRET, MKK7 phosphorylation)
# DLK, sequence (Q12852 1-520): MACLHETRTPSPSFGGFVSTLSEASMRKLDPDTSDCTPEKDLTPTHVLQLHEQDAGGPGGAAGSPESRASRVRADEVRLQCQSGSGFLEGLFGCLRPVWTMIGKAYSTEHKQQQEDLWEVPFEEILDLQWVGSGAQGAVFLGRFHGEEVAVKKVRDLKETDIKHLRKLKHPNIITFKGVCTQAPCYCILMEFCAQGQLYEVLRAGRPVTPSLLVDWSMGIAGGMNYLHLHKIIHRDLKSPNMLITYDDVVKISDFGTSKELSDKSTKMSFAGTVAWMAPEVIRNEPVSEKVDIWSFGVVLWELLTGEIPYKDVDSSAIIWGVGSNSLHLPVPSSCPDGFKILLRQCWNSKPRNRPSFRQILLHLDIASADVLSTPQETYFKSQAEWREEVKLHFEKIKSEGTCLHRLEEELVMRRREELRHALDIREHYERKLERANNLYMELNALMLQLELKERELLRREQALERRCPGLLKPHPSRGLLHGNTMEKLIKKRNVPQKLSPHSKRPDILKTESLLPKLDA
# Outline: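 TR-FRET ratio (665/Eu) reports MKK7 T275/S277 phosphorylation, lowered by DLK inhibition. Reaction: 60 μM ATP, 15 nM MKK7, 10 nM DLK catalytic domain, 90 min room temperature; detection incubation 16 h, 37° C. (1536-well) or 4° C. (384-well). Final concentrations.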
# LZK, sequence (O43283 168-409): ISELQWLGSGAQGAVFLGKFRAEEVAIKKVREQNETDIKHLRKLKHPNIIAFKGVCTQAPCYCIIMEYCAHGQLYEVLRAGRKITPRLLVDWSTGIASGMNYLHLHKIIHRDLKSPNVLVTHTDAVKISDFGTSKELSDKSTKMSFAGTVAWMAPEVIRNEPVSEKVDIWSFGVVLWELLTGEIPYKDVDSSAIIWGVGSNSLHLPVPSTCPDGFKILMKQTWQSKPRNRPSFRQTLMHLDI
IC50 [1],IC50 [2],SMILES
51 nM,3.7 nM,CC[C@H](NC(=O)c1cc(-c2cc(C(=O)N[C@@H](C)CC)c3nc(N)nn3c2)cs1)c1ccccc1 [Compound 89]
110 nM,3.4 nM,C[C@H](NC(=O)c1cc(-c2cc(C(=O)NC3CNC(=O)C3)c3nc(N)nn3c2)cs1)c1ccc(F)cc1 (mixture of isomers) [Compound 28]
235 nM,20.5 nM,Nc1nc2c(C(=O)NC3CCC3)cc(-c3csc(C(=O)NCc4ccccc4)c3)cn2n1 [Compound 52]
> 30000 nM,750 nM,COc1cccc(CCNC(=O)c2cc(-c3ccc4nc(N)nn4c3)cs2)c1 [Compound 282]
30000 nM,30000 nM,CC(NC(=O)c1cc(-c2ccc3nc(N)nn3c2)cs1)c1ccc(C(C)(C)C)cc1 (stereo not shown) [Compound 348]
31 nM,4.2 nM,CC[C@H](C)NC(=O)c1cc(-c2csc(C(=O)N[C@@H](COC)c3ccc(F)cc3)c2)cn2nc(N)nc12 [Compound 138]
9200 nM,430 nM,COc1cccc(CNC(=O)c2cc(-c3cc(C)c4nc(N)nn4c3)cs2)c1 [Compound 372]
2200 nM,140 nM,CNC(=O)c1cc(-c2csc(C(=O)NCc3cccc(OC)c3)c2)cn2nc(N)nc12 [Compound 8]
790 nM,72 nM,CC[C@H](NC(=O)c1cc(-c2cc(C(=O)NC3(CO)CC3)c3nc(N)nn3c2)cs1)c1ccc(F)cc1 [Compound 140]
> 30000 nM,300 nM,Nc1nc2ccc(-c3csc(C(=O)NCc4cccc(OCC(F)(F)F)c4)c3)cn2n1 [Compound 204]
> 30000 nM,4300 nM,Nc1nc2ccc(-c3csc(C(=O)NC4COC4)c3)cn2n1 [Compound 340]
400 nM,21 nM,CC(C)NC(=O)c1cc(-c2csc(C(=O)NC3CCCCC3)c2)cn2nc(N)nc12 [Compound 12]
730 nM,28 nM,CC(C)NC(=O)c1cc(-c2csc(C(=O)NC3CC(C)(C)Oc4ccccc43)c2)cn2nc(N)nc12 (stereo not shown) [Compound 132]
> 30000 nM,210 nM,C[C@H](NC(=O)c1cc(-c2ccc3nc(N)nn3c2)cs1)c1ccc(Cl)cc1 [Compound 355]
> 30000 nM,820 nM,COc1ccc(CNC(=O)c2cc(-c3ccc4nc(N)nn4c3)cs2)cc1OC [Compound 202]
43 nM,21 nM,CC[C@H](C)NC(=O)c1cc(-c2csc(C(=O)NCc3ccc(F)cc3)c2)cc2nc(N)nn12 [Compound 161]
2500 nM,800 nM,CC[C@H](NC(=O)c1cc(-c2csc(C(=O)NCc3ccc(F)cc3)c2)cn2nc(N)nc12)C(F)(F)F [Compound 144-4]
> 30000 nM,1660 nM,Nc1nc2ccc(-c3csc(C(=O)Nc4ccccc4Cl)c3)cn2n1 [Compound 224]
> 30000 nM,18000 nM,COc1cccc(CNC(=O)c2cc(-c3cc(C(=O)N(C)C)c4nc(N)nn4c3)cs2)c1 [Compound 2]
20000 nM,1700 nM,Nc1nc2ccc(-c3csc(C(=O)NCc4cccc(C(=O)O)c4)c3)cn2n1 [Compound 285]
6300 nM,640 nM,Cc1csc(CNC(=O)c2cc(-c3ccc4nc(N)nn4c3)cs2)n1 [Compound 240]
4500 nM,150 nM,Nc1nc2ccc(-c3csc(C(=O)NC4CCc5ccccc54)c3)cn2n1 (stereo not shown) [Compound 307]
1100 nM,84 nM,CCNC(=O)c1cc(-c2csc(C(=O)NCc3cccc(OC)c3)c2)cn2nc(N)nc12 [Compound 6]
> 30000 nM,440 nM,Nc1nc2ccc(-c3csc(C(=O)NC4CCCCCC4)c3)cn2n1 [Compound 174]
> 30000 nM,270 nM,COc1cc(CNC(=O)c2cc(-c3ccc4nc(N)nn4c3)cs2)cc(OC)c1 [Compound 238]
3600 nM,1100 nM,CCc1nnc(-c2cc(-c3csc(C(=O)NCc4ccc(F)cc4)c3)cn3nc(N)nc23)o1 [Compound 395]
